Results reported in PubChem BioAssay (NCI).
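A five-concentration, 48-hour dose response in 96-well plates underlies each endpoint, interpolated linearly between surrounding concentrations. TGI: concentration producing complete growth inhibition.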

Assays:
Assay in all cases: NCI-60 cell line screen, 48 h
[1] = test system: MCF7 breast
[2] = test system: NCI-H23 lung
[3] = test system: OVCAR-3 ovarian
[4] = test system: MOLT-4 leukemia
[5] = test system: M14 melanoma
[6] = test system: SNB-19 CNS
[7] = test system: U251 CNS
[8] = test system: UACC-257 melanoma
[9] = test system: K-562 leukemia
[10] = test system: SN12C renal
[11] = test system: RPMI-8226 leukemia
[12] = test system: CCRF-CEM leukemia
[13] = test system: NCI/ADR-RES ovarian
[14] = test system: KM12 colon
[15] = test system: CAKI-1 renal
[16] = test system: MDA-MB-435
[17] = test system: HL-60(TB) leukemia
[18] = test system: SK-OV-3 ovarian
[19] = test system: HCT-15 colon
[20] = test system: HS 578T breast
[21] = test system: OVCAR-8 ovarian
[22] = test system: SF-268 CNS
[23] = test system: SR leukemia
[24] = test system: UO-31 renal
[25] = test system: NCI-H460 lung
[26] = test system: IGROV1 ovarian
[27] = test system: ACHN renal
[28] = test system: OVCAR-5 ovarian
[29] = test system: SK-MEL-2 melanoma
[30] = test system: LOX IMVI melanoma
[31] = test system: MDA-N
[32] = test system: SF-539 CNS
[33] = test system: NCI-H226 lung
[34] = test system: SW-620 colon
[35] = test system: A498 renal
[36] = test system: DU-145 prostate
[37] = test system: NCI-H522 lung
[38] = test system: T-47D breast
[39] = test system: HCT-116 colon
[40] = test system: SF-295 CNS
[41] = test system: HOP-62 NSCLC
[42] = test system: 786-0 renal
[43] = test system: SK-MEL-5 melanoma
[44] = test system: PC-3 prostate
[45] = test system: MDA-MB-231 breast
[46] = test system: UACC-62 melanoma
[47] = test system: A549 NSCLC
[48] = test system: HT29 colon
[49] = test system: COLO 205 colon
[50] = test system: TK-10 renal
[51] = test system: EKVX NSCLC
[52] = test system: MALME-3M melanoma
[53] = test system: HCC-2998 colon
[54] = test system: OVCAR-4 ovarian
[55] = test system: SNB-75 CNS
[56] = test system: RXF 393 renal
[57] = test system: SK-MEL-28 melanoma

In the case of `CC/C=C/C(CC)C/C(C)=C\[C@]1(CC)C[C@H](CC)[C@H](CC(=O)O)OO1` (stereo partly drawn), the TGI [1] is reported as 3.58 µM, the TGI [2] is reported as 3.05 µM and the TGI [3] is reported as 2.48 µM. For the same compound, the TGI [4] was 0.494 µM, the TGI [5] was 3.6 µM and the TGI [6] was 3.34 µM. The TGI [7] was 1.79 µM, the TGI [8] was 11.1 µM and the TGI [9] was 1.48 µM. It also gave a TGI [10] of 3.05 µM, a TGI [11] of 0.395 µM and a TGI [12] of 0.41 µM. It also gave a TGI [13] of 1.84 µM, a TGI [14] of 0.235 µM and a TGI [15] of 0.967 µM. For the same compound, the TGI [16] was 2.8 µM, the TGI [17] was 2.27 µM and the TGI [18] was 3.3 µM. The TGI [19] was 1.62 µM, the TGI [20] was 5.31 µM and the TGI [21] was 3.23 µM. It also gave a TGI [22] of 2.9 µM, a TGI [23] of 0.287 µM and a TGI [24] of 0.0368 µM. It also gave a TGI [25] of 0.36 µM, a TGI [26] of 0.208 µM and a TGI [27] of 0.641 µM. For the same compound, the TGI [28] was 2.64 µM, the TGI [29] was 3.22 µM and the TGI [30] was 0.129 µM. The TGI [31] was 2.71 µM, the TGI [32] was 2.93 µM and the TGI [33] was 4.58 µM. For the same compound, the TGI [34] was 1.42 µM, the TGI [35] was 3.07 µM and the TGI [36] was 1.64 µM. For the same compound, the TGI [37] was 0.331 µM, the TGI [38] was 2.99 µM and the TGI [39] was 1.43 µM. It also gave a TGI [40] of 1.19 µM, a TGI [41] of 2.2 µM and a TGI [42] of 2.61 µM. The TGI [43] was 2.54 µM, the TGI [44] was 1.24 µM and the TGI [45] was 3.31 µM. It also gave a TGI [46] of 3.07 µM, a TGI [47] of 0.281 µM and a TGI [48] of 1.83 µM. It also gave a TGI [49] of 2.72 µM.
With `COc1cc2nn(-c3ccccc3)nc2c2nonc12` the TGI [2] was over 100 µM, the TGI [3] was over 100 µM and the TGI [50] was over 100 µM. For the same compound, the TGI [4] was over 100 µM, the TGI [5] was over 100 µM and the TGI [6] was over 100 µM. The TGI [8] was over 100 µM, the TGI [9] was over 100 µM and the TGI [10] was over 100 µM. The TGI [11] was over 100 µM, the TGI [12] was over 100 µM and the TGI [51] was over 100 µM. It also gave a TGI [13] of over 100 µM, a TGI [14] of over 100 µM and a TGI [15] of over 100 µM. The TGI [16] was over 100 µM, the TGI [17] was over 100 µM and the TGI [18] was over 100 µM. For the same compound, the TGI [19] was over 100 µM, the TGI [20] was over 100 µM and the TGI [22] was over 100 µM. For the same compound, the TGI [52] was over 100 µM, the TGI [23] was over 100 µM and the TGI [24] was over 100 µM. It also gave a TGI [25] of over 100 µM, a TGI [53] of over 100 µM and a TGI [26] of over 100 µM. It also gave a TGI [54] of over 100 µM, a TGI [55] of over 100 µM and a TGI [27] of over 100 µM. For the same compound, the TGI [28] was over 100 µM, the TGI [29] was over 100 µM and the TGI [30] was over 100 µM. The TGI [56] was over 100 µM, the TGI [31] was over 100 µM and the TGI [32] was over 100 µM. For the same compound, the TGI [33] was over 100 µM, the TGI [34] was over 100 µM and the TGI [35] was over 100 µM. It also gave a TGI [36] of over 100 µM, a TGI [37] of over 100 µM and a TGI [38] of over 100 µM. For the same compound, the TGI [39] was over 100 µM, the TGI [40] was over 100 µM and the TGI [41] was over 100 µM. It also gave a TGI [42] of over 100 µM, a TGI [43] of over 100 µM and a TGI [44] of over 100 µM. The TGI [45] was over 100 µM, the TGI [57] was over 100 µM and the TGI [46] was over 100 µM. It also gave a TGI [47] of over 100 µM, a TGI [48] of over 100 µM and a TGI [49] of over 100 µM.
